{"source": "patent US10822586B2", "about": "“Agents and methods for treating and preventing seborrheic keratosis” (THE GENERAL HOSPITAL CORPORATION, priority 2012, dated 2020)", "key": {"Akt": {"test_system": "Akt", "assay": "Western blotting of Akt signaling in SK cells", "format": "cell-based, human", "method": "(§1) (FIG. 3A) SK and normal keratinocytes were treated with C8 for 24 hrs and SRB stained. (FIG. 3B) and (FIG. 3C). SK cells were treated with C8 for 4 hrs and subjected to Western blotting for corresponding proteins."}, "primary SK cells": {"test_system": "primary SK cells", "assay": "Screening for inducers of cell death in primary SK cells (SRB assay)", "format": "cell-based, human", "conditions": "for SK cell death inducer activity / viability of SK cells in the screen: 500 nM; for SK cell death inducer activity / viability of SK cells in the screen / cell death in SK cells (follow-up): 24 hrs post treatment, SRB assay", "method": "(§2) FIG. 2A, FIG. 2B, and FIG. 2C show data relating to the screening for small molecule inducers of cell death in primary SK cells. (FIG. 2A) 20 small molecule inhibitors (500 nM) of kinases within the MAPK-Raf and PIK3/Akt pathway were used to treat primary SK cells (in 12 well plates) harboring either FGFR3 or/and PIK3CA mutations or none. Cell death was detected 24 hrs post treatment using SRB assay. (FIG. 2B) Representative images of cells after compound treatment. (FIG. 2C) Same molecules were used on normal human keratinocytes in two different concentrations.\n(§3) (FIG. 4A) SK cells were treated with two different Akt inhibitors and cell death was measured 24 hrs post treatment using SRB assay. (FIG. 4B) Akt inhibitors were profiled against the human kinome and shared targets were identified. (FIG. 4C) Cell death in SK cells after PKC inhibition. (FIG. 4D) cell death was measured in SK cells 72 hrs after transfection with control RNAi or RNAi for Akt1 and/or 2.\n(§4) Due to the fragility of the primary cultures, RNAi transfection in a high throughput fashion turned out to be challenging, which prompted the use of a collection of specific small molecule kinase inhibitors to determine which kinase is essential for survival of SK cells but not of normal human keratinocytes. This level of selectivity was introduced in order to specifically target dependency caused by genomic alterations (both mutations and overexpression).\nAs recently reported this hyperphosphorylation is due to the docking of the compound in the ATP binding site, which prevents the Akt interaction with its downstream targets^27. As shown in FIG. 5B SK cells treated with C8 indeed have a hyperphosphorylated Akt, but importantly the Akt downstream signaling was shut down (FIG. 5C).\n(§5) Small molecule kinase inhibitors usually have a high degree of specificity towards kinases in general but often these inhibitory effects are shared among several kinases, although in different doses. While this is in most of the cases considered a weakness of the approach, it can also give some evidence about other possible targets involved in the process of interest. Therefore, the inventors profiled the two effective compounds for their targets (in collaboration with Dr. N. Gray, DFCI) and determined if any other kinases might be involved in the survival of SK cells. […] In addition, the inventors were able to confirm this by down-modulation of Akt family members using an RNAi approach."}, "human kinome": {"test_system": "human kinome", "assay": "Profiling of Akt inhibitors against the human kinome", "format": "biochemical", "method": "as §3, §5"}, "[1]": {"test_system": "pro-apoptotic Akt targets (FoxO1/3, MDM2, p53)", "assay": "Western blot of pro-apoptotic Akt targets in SK cells", "format": "cell-based, human", "conditions": "24 hrs post treatment, WB", "method": "(§6) (FIG. 6A) SK cells were treated with the Akt inhibitor either for 24 hrs to measure levels of cleaved PARP by Western blotting or (FIG. 6B) for 48 hrs to detect TUNEL staining. (FIG. 6C) 24 hrs post treatment pro-apoptotic Akt targets were analyzed by WB.\nTherefore, it was investigated if any of the prominent pro-apoptotic targets of Akt were involved in this process. A decrease of phosphorylated levels of FoxO1/3 as well as of phosphorylated MDM2 was observed, which correlated with increased p53 levels upon treatment with the Akt inhibitor […]."}, "SK cells": {"test_system": "SK cells", "assay": "Apoptosis in SK cells (cleaved PARP Western blotting, TUNEL staining)", "format": "cell-based, human", "method": "as §6\nIt is well-established that activation of Akt in cells is known to elicit pro-survival effects through activation/suppression of different targeted pathways."}, "[2]": {"test_system": "normal human keratinocytes", "assay": "Cell death in normal human keratinocytes (SRB assay)", "format": "cell-based", "conditions": "C8 dose-response, 24 hrs, SRB stained", "method": "as §2\nas §1, with “FIG. 3A, FIG. 3B, and FIG. 3C show data relating to small molecule-mediated inhibition of Akt signaling in primary SK cells. (FIG. 3A)” for “(FIG. 3A)”\nas §4, with “overexpression). […]” for “overexpression).”"}, "Human SK explants": {"test_system": "Human SK explants", "assay": "Topical treatment of ex vivo human SK explants", "format": "cell-based", "method": "It is now widely accepted that growth, differentiation and death of keratinocytes in culture differs in significant aspects from that in intact skin. Therefore, in order to closely reproduce the in vivo situation for SK tumors, the inventors utilized an ex vivo explant system^16 for culturing freshly excised SK lesions for up to 7 days. SK explants were treated by topical application of 1 mM of C8 for 48 hrs and stained for activated Caspase 3 to detect cell death."}, "[3]": {"conditions": "SK cells treated 4 hrs, Western blotting"}}, "note": "Entries after “also recorded” stand apart in the source; their conditions may differ. Read-outs that look alike come from different tables or passages of the source.", "data": [{"smiles": "O=c1c(O)c(-c2ccc(O)cc2)oc2cc(O)cc(O)c12", "note": "[kaempferol]", "values": [{"measurement": "Akt signaling in SK cells", "setting": "Akt", "value": "block Akt signaling"}, {"measurement": "cell death in SK cells", "setting": "primary SK cells; within 48 hours", "value": "induce cell death"}]}, {"smiles": "Cc1n[nH]c2ccc(-c3cncc(OC[C@@H](N)Cc4c[nH]c5ccccc45)c3)cc12", "note": "[C8]", "values": [{"measurement": "Akt downstream signaling", "setting": "Akt; [3]", "value": "shut down"}, {"measurement": "phosphorylation status of Akt at T308 and 5473", "setting": "Akt; [3]", "value": "paradoxical hyperphosphorylation"}, {"measurement": "shared targets in kinase profiling", "setting": "human kinome", "value": "only members of the Akt and PKC family were shared targets"}, {"measurement": "p53 levels", "setting": "[1]", "value": "increased"}, {"measurement": "phosphorylated MDM2", "setting": "[1]", "value": "decrease"}, {"measurement": "phosphorylated levels of FoxO1/3", "setting": "[1]", "value": "decrease"}, {"measurement": "apoptosis as detected by cleaved PARP levels and TUNEL staining", "setting": "SK cells; 24 hrs (cleaved PARP), 48 hrs (TUNEL)", "value": "induction of apoptosis"}, {"measurement": "TUNEL staining", "setting": "SK cells; SK cells, 48 hrs", "value": "positive"}, {"measurement": "effect on normal keratinocytes", "setting": "[2]", "value": "remained unaffected even at higher doses"}, {"measurement": "cell death in SK explants (activated Caspase 3)", "setting": "Human SK explants; topical application of 1 mM for 48 hrs", "value": "significant cell death; also recorded: induction of cell death"}, {"measurement": "tissue destruction in SK explants (H&E staining)", "setting": "Human SK explants; topically treated with 1 mM for 48 hrs", "value": "tissue destruction"}, {"measurement": "SK cell death inducer activity / viability of SK cells in the screen", "setting": "primary SK cells", "value": "very strong activity"}, {"measurement": "cell death in SK cells (follow-up)", "setting": "primary SK cells", "value": "dose-response killing effect"}]}, {"smiles": "CCn1c(-c2nonc2N)nc2c(C#CC(C)(C)O)ncc(OC[C@H]3CCCNC3)c21", "note": "[GSK690693]", "values": [{"measurement": "shared targets in kinase profiling", "setting": "human kinome", "value": "only members of the Akt and PKC family were shared targets"}]}, {"smiles": "Cc1c2ccncc2c(C)c2c1[nH]c1ccccc12", "note": "[elipticine, ellipticine]", "values": [{"measurement": "Akt signaling in SK cells", "setting": "Akt", "value": "block Akt signaling"}, {"measurement": "cell death in SK cells", "setting": "primary SK cells; within 48 hours", "value": "induce cell death"}]}, {"smiles": "Clc1ccc(C2(c3ccc(-c4cn[nH]c4)cc3)CCNCC2)cc1", "note": "[C9]", "values": [{"measurement": "SK cell death inducer activity / viability of SK cells in the screen", "setting": "primary SK cells", "value": "did not affect the viability"}, {"measurement": "cell death in SK cells (follow-up)", "setting": "primary SK cells", "value": "did not show any effects"}]}, {"smiles": "COc1ccc(C2=N[C@@H](c3ccc(Cl)cc3)[C@@H](c3ccc(Cl)cc3)N2C(=O)N2CCNC(=O)C2)c(OC(C)C)c1", "note": "[Nutlin-3]", "values": [{"measurement": "cell death in SK cells", "setting": "primary SK cells", "value": "induces cells death"}]}, {"smiles": "COc1ccc(C[C@H](N)C(=O)N[C@H]2[C@@H](O)[C@H](n3cnc4c(N(C)C)ncnc43)O[C@@H]2CO)cc1", "note": "[pyromycin, puromycin]", "values": [{"measurement": "cell death in SK cells", "setting": "primary SK cells", "value": "inducer of cell death"}]}]}
